In patent US10793588B2, “Crystal form of sodium-glucose cotransporter 2 inhibitor” (HAINAN XUANZHU PHARMA CO., LTD., priority 2016, dated 2020):
Values belong to the molecule of their own block, whether it stands above or below them.

Experiment: Stability test of crystalline Form I and free compound (properties, relevant substances by HPLC, XRD)
Type: physicochemical
Experimental: The crystalline Form I of the co-crystal of the compound of Formula (1) with L-proline, which was prepared according to the methods in the examples; free compound of Formula (1).
The test samples were placed under conditions of 60° C., 40° C., RH 90%±5%, RH 75%±5%, 4500lx±500lx or UV-Vis for 10 days, […], and the samples were tested for relevant substances and XRD pattern; and the results were compared with those of a sample on the 0th day.
Determination of the relevant substances: the determination was carried out in accordance with High Performance Liquid Chromatography in Appendix V D in Pharmacopoeia of the People's Republic of China (2010) (Volume II).
XRD measurement: the measurement was carried out in accordance with X-Ray Powder Diffraction in Appendix IX F in Pharmacopoeia of the People's Republic of China (2010) (Volume II).

[1] = 0th day (baseline, listed under 60° C.)
[2] = UV-Vis, total illumination ≥1.2 × 10^6 Lux·h, near ultraviolet energy ≥200 w·h/m^2
[3] = conditions that meet the illumination requirement (UV-Vis)

- Relevant substances (%) [1]: 0.60%
- Relevant substances (%) (40° C., 5th day): 0.67%
- Relevant substances (%) (40° C., 10th day): 0.65%
- Relevant substances (%) (60° C., 5th day): 0.68%
- Relevant substances (%) (60° C., 10th day): 0.62%
- Relevant substances (%) (4500 lx ± 500 lx, 5th day): 0.66%
- Relevant substances (%) (4500 lx ± 500 lx, 10th day): 0.71%
- Relevant substances (%) (RH75% ± 5%, 5th day): 0.66%
- Relevant substances (%) (RH75% ± 5%, 10th day): 0.64%
- Relevant substances (%) (RH90% ± 5%, 5th day): 0.65%
- Relevant substances (%) (RH90% ± 5%, 10th day): 0.63%
- Stability compared with the free base of the compound (overall conclusion of the stability test): better stability
- Change of property, relevant substances and XRD pattern (temperature, humidity or light conditions for 10 days): did not change significantly
Compound: O=C(O)[C@@H]1CCCN1.O=C(O)[C@@H]1CCCN1.OC[C@H]1O[C@@H](c2ccc(Cl)c(Cc3ccc(O[C@H]4C[C@@H]5C[C@@H]5C4)cc3)c2)[C@H](O)[C@@H](O)[C@@H]1O [crystalline Form I]

- Relevant substances (%) [1]: 1.35%
- XRD [1]: Amorphism
- Relevant substances (%) (40° C., 10th day): 1.44%
- XRD (40° C., 10th day): Amorphism
- Relevant substances (%) (60° C., 10th day): 1.43%
- XRD (60° C., 10th day): Amorphism
- XRD (RH75% ± 5%, 6th day): Amorphism
- Hygroscopicity under humidity conditions (RH90% ± 5% / RH75% ± 5%, 6th day): significant hygroscopic deliquescence
- XRD (RH90% ± 5%, 6th day): Amorphism
- Properties [2]: Tawny powder
- Relevant substances (%) [2]: 9.91%
- XRD [2]: Amorphism
- Increase of relevant substances relative to 0th day [3]: 8.56%
- Change of amount of relevant substances (temperature conditions (60° C., 40° C.) for 10 days): increased
Compound: OC[C@H]1O[C@@H](c2ccc(Cl)c(Cc3ccc(O[C@H]4C[C@@H]5C[C@@H]5C4)cc3)c2)[C@H](O)[C@@H](O)[C@@H]1O [free compound of Formula (1), (2S,3R,4R,5S,6R)-2-(3-(4-(((1R,3s,5S)-bicyclo[3.1.0]hexan-3-yl)oxy)benzyl)-4-chlorophenyl)-6-(hydroxymethyl)tetrahydro-2H-pyran-3,4,5-triol]
- Change of property of the sample [3]: changed from an almost white powder to a tawny powder
